In paper PMC12040169 (PLOS Biology, 2025):

assay: in vitro; conditions: human, hela cells, % viability

| SMILES | viability at 28.5 h, 10 µM |
| --- | --- |
| CC1CCc2sc(C(=O)N3CCC4(CC3)NC(=O)NC4=O)cc2C1 (stereo not shown) [CBK304992] | 89.1% |
| Cc1nc2nc(N)nn2c(C)c1CCC(=O)NCc1cccc(Cl)c1 [CBK304993] | 87.5% |
| CCCn1ccnc1SCC(=O)Nc1ccc(N(C)C)cc1 [CBK304996] | 112% |
| COC(=O)c1ccc2c(=O)n(CC(C)O)c(SC3CCOC3=O)nc2c1 (stereo not shown) [CBK304997] | 84.7% |
| Cc1ccc(Cc2cnc(NC(=O)CN3CSCC3=O)s2)cc1Cl [CBK305001] | 82% |
| CC1CCc2c(C(=O)N(C)CC(=O)NC(C)(C)C)csc2C1 (stereo not shown) [CBK305002] | 97.5% |
| CCOC(=O)c1cnc(SC(C)C(=O)N2CCc3ccccc32)nc1N (stereo not shown) [CBK305007] | 86.9% |
| COc1ccc(S(=O)(=O)N2CCOCC2)cc1C(=O)N1CCCC(C)C1 (stereo not shown) [CBK305011] | 110% |
| CC1CCCN(C(=O)c2cc(S(=O)(=O)N3CCOCC3)ccc2Cl)C1 (stereo not shown) [CBK305012] | 99.5% |
| CC(C)CC(=O)N1CCN(Cc2nc3sc4c(c3c(=O)[nH]2)CCC4)CC1 [CBK305014] | 86.4% |
| CN(C)c1nc(-c2ccc3c(c2)CCCN3S(C)(=O)=O)cs1 [CBK305016] | 87.1% |
| COC(=O)c1ccc2c(=O)n(CC(C)O)c(SC)nc2c1 (stereo not shown) [CBK305018] | 88% |
| Cc1csc2nc(CN3CCN(C(=O)c4ccccc4)CC3)cc(=O)n12 [CBK305019] | 110% |
| CS(=O)(=O)N1CCCc2cc(-c3csc(N4CCOCC4)n3)ccc21 [CBK305022] | 84.8% |
| O=C(NCCCc1ccccc1)c1cccc(S(=O)(=O)N2CCCC2)c1 [CBK305024] | 96.1% |
| CCCC(=O)Nc1ccc(-c2csc(N3CCN(C)CC3)n2)cc1 [CBK305025] | 103% |
| CCCn1c(SCC(=O)NC2CCN(CC)CC2)nc2cc(Cl)ccc21 [CBK305027] | 104% |
| COc1ccccc1C(CNC(=O)Nc1cc(C)on1)N(C)C (stereo not shown) [CBK305028] | 97.8% |
| CC(Sc1nc2ccccc2c(=O)n1C)C(=O)N1CCOCC1 (stereo not shown) [CBK305031] | 88.5% |
| CC1CCCCN1S(=O)(=O)c1ccc(-n2ncc(Cl)c(Cl)c2=O)cc1 (stereo not shown) [CBK305035] | 90.6% |
| COC(=O)CNC(=O)c1cc(-c2ccc(C)s2)nc2c1cnn2C(C)C [CBK305040] | 99.5% |
| O=C(Cn1ccc(=O)[nH]c1=O)NCc1ccc(OCC(F)(F)F)cc1 [CBK305041] | 109% |
| N#Cc1ccnc(N2CCN(CC(=O)NCC(F)(F)F)CC2)c1 [CBK305042] | 95.1% |

| SMILES | viability at 28.5 h, 10 µM |
| --- | --- |
| CC(=O)Nc1cccc(-n2nnnc2SCC(=O)N2CCNC2=O)c1 [CBK305043] | 88.5% |
| Cc1ccsc1C(=O)N1CCN(Cc2cc(=O)n3ccccc3n2)CC1 [CBK305044] | 102% |
| N#Cc1cccc(C(=O)NCCc2cn3c(n2)CCCC3)c1 [CBK305046] | 93.9% |
| COc1cccc(CC(=O)Nc2ncccc2O)c1 [CBK305047] | 95.3% |
| O=C(NCCN1CCc2ccccc2C1)C1CCCCC1 [CBK305049] | 115% |
| CCOC(=O)N1CCN(S(=O)(=O)c2ccc3c(c2)oc(=O)n3CC)CC1 [CBK305055] | 99% |
| Cn1ncc2c(=O)n(Cc3noc(-c4ccsc4)n3)cnc21 [CBK305056] | 99% |
| Cc1cc(NC(=O)NC2CC3(CCN(C)CC3)Oc3ccccc32)no1 (stereo not shown) [CBK305059] | 104% |
| CC(C)c1nc2c(n1C)CCN(Cc1cc(=O)n3ccccc3n1)C2 [CBK305061] | 92.6% |
| CCc1ccc2c(c1)C(CCNC(=O)CCc1ccsc1)C(=O)N2 (stereo not shown) [CBK305063] | 94.5% |
| Cn1cc(C2CCCN2C(=O)Cc2csc3ccccc23)cn1 (stereo not shown) [CBK305066] | 102% |
| Cc1cc(OCC(=O)N2CCC(C(=O)Nc3ccccc3)CC2)no1 [CBK305067] | 99.5% |
| Cc1ccnc2nc(C(=O)OCC(=O)Nc3cccc(C#N)c3)nn12 [CBK305068] | 100% |
| CCN(CC)C(=O)CCc1nc2sc3c(c2c(=O)[nH]1)CCCC3 [CBK305069] | 87.6% |
| CCn1cnnc1SCC(=O)Nc1ccc(CN2CCOCC2)cc1 [CBK305072] | 97.4% |
| COc1cccc(C(=O)NCC(c2cccs2)N2CCOCC2)c1 (stereo not shown) [CBK305075] | 90.7% |
| CCOc1ncccc1NC(=O)N(CC1CCOC1)C1CC1 (stereo not shown) [CBK305077] | 94% |
| CS(=O)(=O)NC1CCN(CCc2ccc(F)c(F)c2)C1 (stereo not shown) [CBK305078] | 95.3% |
| CC(=O)Nc1cccc(C(=O)N2CCCC2c2ccncc2)c1 (stereo not shown) [CBK305080] | 96.5% |
| CCNC(=O)C1CCCN(Cc2ncc(C)c(OC)c2C)C1 (stereo not shown) [CBK305081] | 78% |
| CC(c1ccc(F)c(F)c1)N(C)C(=O)Cn1ncn(C)c1=O (stereo not shown) [CBK305083] | 80.2% |
| CCC(c1ccccc1)N1CCN(Cc2noc(C)n2)CC1 (stereo not shown) [CBK305084] | 90.3% |
| CCN(CC)C(=O)C1CCCN1C(=O)c1ccnc(N(C)C)c1 (stereo not shown) [CBK305086] | 99.7% |
